Results from patent US9481712B2, “Peptidomimetics possessing photo-controlled biological activity” (priority 2013, dated 2016).
Values after ≈ are worked out from the molar mass of the structure shown. *1 amine or outer side, *2 acyl side, *3 side chain or, on linkers, in order; H or OH if unused. Where a SMILES comes first, the peptide text is derived from it. Bridges are numbered along the chain shown (N, C = ends). [ ]: non-standard residue; d: D form. X2 = CC12SC(C(=O)NN[*:2])=CC1=C1CCCC1=C1C=C(C(=O)[*:1])SC12C; X1 = Cc1sc(C(=O)NN[*:2])cc1C1=C(c2cc(C(=O)[*:1])sc2C)CCC1; Orn = NCCC[C@H](N)C(=O)O

Key:
[1] = system: Escherichia coli DSM 1103; format: cell-based
Experimental: (§1) The antimicrobial activities of GS and its analogues were measured using broth microdilution assay using a standard protocol [Daniel Amsterdam (1996). Susceptibility testing of antimicrobials in liquid media. In: Antibiotics in laboratory medicine, Loman, V., ed., 4th ed. Williams and Wilkins, Baltimore, Md., pp. 52-111]. The peptidomimetic compounds were tested against bacteria strains Escherichia coli DSM 1103, Staphylococcus aureus DSM 1104, Staphylococcus epidermidis DSM 1708, and Staphylococcus xylosus DSM 20267. GS analogues in the “closed” form were prepared in advance by RP-HPLC and stored protecting them from light. The corresponding minimal inhibitory concentrations (MIC) are listed in Table 2, where a small MIC value indicates a high antimicrobial activity, and vice versa.

[2] = system: Staphylococcus aureus DSM 1104; format: cell-based
Experimental: as §1

[3] = system: Staphylococcus epidermidis DSM 1708; format: cell-based
Experimental: as §1

[4] = system: Staphylococcus xylosus DSM 20267; format: cell-based
Experimental: as §1

[5] = system: erythrocytes; format: cell-based, human; settings: pH 7.6
Experimental: To test the hemolytic activities of GS and its analogues, conserved human blood samples were obtained from Karlsruhe municipal hospital and washed four times in Tris buffer, pH 7.6, at 4° C. Aliquots of the blood cells were incubated with different concentrations of the peptide/peptidomimetics for 30 min at 37° C. and subsequently centrifuged. The absorption of the supernatant at 540 nm gives the extent of hemolysis, relative to 0% as taken from the peptide-free control and 100% after treatment with Triton X-100 (not to interfere with this analysis, the samples with GS analogues in the “closed” form were back-converted to their “open” forms by 30 min exposure to the visible light). The HC50 values, where 50% of the erythrocytes were lysed, were determined from the concentration dependent curves and are listed in Table 3. Small HC50 values indicate a high hemolytic activity, and vice versa. […] This proves by several independent assays that the biological activities of the photo-switchable GS analogues could be controlled by light.

[6] = photo-conversion from "closed" to "open" form by visible light (RP-HPLC); format: physicochemical
Experimental: The reverse photo-conversion of the peptidomimetic GS-Sw(FP) from the “closed” to the “open” form by visible light was also tested. A solution of peptide in the pink-colored “closed”-form (in a water-acetonitrile mixture, 3:1, 100 μg/ml) was used. The conversion of the peptidomimetic from the “closed”-form to the “open”-form was determined by RP-HPLC (analytical C18 column, linear A:B gradient of 4% B/min, 1.5 ml/min flow rate) after 0.25, 1.5, 5.5, 7.5 min of irradiation by visible light. A bright halogen lamp (250 Watts) was used, and the solutions were placed in 10 cm distance from the light source. The obtained data fitted well to the exponential equation y=[…], where y is a conversion of “closed” form into the “open” form, t is the time of the illumination and r is the half-conversion time. […] The conversion from “closed” to “open” could be achieved to 100%.

[7] = system: Staphylococcus xylosus; test: photo-activation on bacterial lawn (FIG. 5); format: cell-based; settings: 6 or 8 μg/ml "closed" form converted 60% or 80% by visible light; 37° C. for 18 hours
Excerpt: The compound was applied to the bacterial lawn at different concentrations and then irradiated by visible light. Some geometrical shapes were cut out from a paper covering the entire Petri dish, such that the photo-switchable compound was converted into the “open” form only in those small areas exposed to the light. […] One further experiment aimed at finding these optimal conditions for treatment with the peptidomimetic GS-SwFP is illustrated in FIG. 5.

[8] = 250 W halogen lamp, 10 cm, water-acetonitrile 3:1, 100 μg/ml, from exponential fit

minimal inhibitory concentration (MIC) [1] | minimal inhibitory concentration (MIC) [2] | minimal inhibitory concentration (MIC) [3] | minimal inhibitory concentration (MIC) [4] | achievable conversion from "closed" to "open" [6] | time of illumination to achieve 60% transformation "closed" to "open" [6, 8] | time of illumination to achieve 80% conversion "closed" to "open" [6, 8] | SMILES | H50 (50% of hemolysis) [5] | antimicrobial effect on bacterial lawn after activation to "open" form [7]
128 µg/mL (≈ 103 µM) | 4 µg/mL (≈ 3.22 µM) | 8 µg/mL (≈ 6.44 µM) | 8 µg/mL (≈ 6.44 µM) | – | – | – | Cc1sc2cc1C1=C(CCC1)c1cc(sc1C)C(=O)N[C@@H](C(C)C)C(=O)N[C@@H](CCCN)C(=O)N[C@@H](CC(C)C)C(=O)N[C@H](Cc1ccccc1)C(=O)N1CCC[C@H]1C(=O)N[C@@H](C(C)C)C(=O)N[C@@H](CCCN)C(=O)N[C@@H](CC(C)C)C(=O)NNC2=O [GS-Sw(FP), “open”, cyclo(^DFPVOL-1b-VOL)] | 6.5 µg/mL | –
64 µg/mL (≈ 52.2 µM) | 128 µg/mL (≈ 104 µM) | 128 µg/mL (≈ 104 µM) | 128 µg/mL (≈ 104 µM) | – | – | – | CC(C)C[C@@H]1NC(=O)[C@H](CCCN)NC(=O)[C@H](C(C)C)NC(=O)[C@@H]2CCCN2C(=O)C2=CC3=C4CCCC4=C4C=C(SC4(C)C3(C)S2)C(=O)NNC(=O)[C@H](CCCN)NC(=O)[C@H](C(C)C)NC(=O)[C@@H]2CCCN2C(=O)[C@@H](Cc2ccccc2)NC1=O (stereo partly drawn) [GS-Sw(LF), “closed”, cyclo(^DFPVO-1b-PVOL)] (PV[Orn]L[dF]PV[Orn]; linker N-C via X2) | >>128 μg/ml | –
>128 µg/mL | 8 µg/mL (≈ 6.53 µM) | 16 µg/mL (≈ 13.1 µM) | 8 µg/mL (≈ 6.53 µM) | – | – | – | Cc1sc2cc1C1=C(CCC1)c1cc(sc1C)C(=O)N1CCC[C@H]1C(=O)N[C@@H](C(C)C)C(=O)N[C@@H](CCCN)C(=O)N[C@@H](CC(C)C)C(=O)N[C@H](Cc1ccccc1)C(=O)N1CCC[C@H]1C(=O)N[C@@H](C(C)C)C(=O)N[C@@H](CCCN)C(=O)NNC2=O [GS-Sw(LF), “open”, cyclo(^DFPVO-1b-PVOL)] (PV[Orn]L[dF]PV[Orn]; linker N-C via X1) | 47 µg/mL | –
– | – | – | – | 100% | 7.5 min | 12.5 min | Cc1sc2cc1C1=C(CCC1)c1cc(sc1C)C(=O)N[C@@H](C(C)C)C(=O)N[C@@H](CCCN)C(=O)N[C@@H](CC(C)C)C(=O)N[C@H](Cc1ccccc1)C(=O)N1CCC[C@H]1C(=O)N[C@@H](C(C)C)C(=O)N[C@@H](CCCN)C(=O)N[C@@H](CC(C)C)C(=O)NNC2=O [GS-Sw(FP), cyclo(^DFPVOL-1b-VOL)] | – | pronounced antimicrobial activity
>128 µg/mL | 32 µg/mL (≈ 25.8 µM) | 64 µg/mL (≈ 51.5 µM) | 32 µg/mL (≈ 25.8 µM) | – | – | – | CC(C)C[C@@H]1NC(=O)[C@H](CCCN)NC(=O)[C@H](C(C)C)NC(=O)[C@@H]2CCCN2C(=O)[C@@H](Cc2ccccc2)NC(=O)[C@H](CC(C)C)NC(=O)[C@H](CCCN)NC(=O)[C@H](C(C)C)NC(=O)C2=CC3=C4CCCC4=C4C=C(SC4(C)C3(C)S2)C(=O)NNC1=O (stereo partly drawn) [GS-Sw(FP), “closed”, cyclo(^DFPVOL-1b-VOL)] | 72 µg/mL | –
>128 µg/mL | 16 µg/mL (≈ 12.4 µM) | 32 µg/mL (≈ 24.8 µM) | 32 µg/mL (≈ 24.8 µM) | – | – | – | CC(C)C[C@@H]1NC(=O)[C@H](CCCN)NC(=O)[C@H](C(C)C)NC(=O)[C@@H]2CCCN2C(=O)[C@@H](Cc2ccccc2)NC(=O)[C@H](CC(C)C)NC(=O)[C@H](CCCN)NC(=O)C2=CC3=C4CCCC4=C4C=C(SC4(C)C3(C)S2)C(=O)NNC(=O)[C@@H](Cc2ccccc2)NC1=O (stereo partly drawn) [GS-Sw(PV), “closed”, cyclo(^DFPVOL^DF-1b-OL)] ([Orn]L[dF]PV[Orn]L[dF]; linker N-C via X2) | 58 µg/mL | –
>128 µg/mL | 4 µg/mL (≈ 3.1 µM) | 4 µg/mL (≈ 3.1 µM) | 4 µg/mL (≈ 3.1 µM) | – | – | – | Cc1sc2cc1C1=C(CCC1)c1cc(sc1C)C(=O)N[C@@H](CCCN)C(=O)N[C@@H](CC(C)C)C(=O)N[C@H](Cc1ccccc1)C(=O)N1CCC[C@H]1C(=O)N[C@@H](C(C)C)C(=O)N[C@@H](CCCN)C(=O)N[C@@H](CC(C)C)C(=O)N[C@H](Cc1ccccc1)C(=O)NNC2=O [GS-Sw(PV), “open”, cyclo(^DFPVOL^DF-1b-OL)] ([Orn]L[dF]PV[Orn]L[dF]; linker N-C via X1) | 6 µg/mL | –

SMILES | minimal inhibitory concentration (MIC) [1] | minimal inhibitory concentration (MIC) [2] | minimal inhibitory concentration (MIC) [3] | minimal inhibitory concentration (MIC) [4] | achievable conversion from "closed" to "open" [6] | time of illumination to achieve 60% transformation "closed" to "open" [6, 8] | time of illumination to achieve 80% conversion "closed" to "open" [6, 8] | H50 (50% of hemolysis) [5] | antimicrobial effect on bacterial lawn after activation to "open" form [7]
CC(C)C[C@@H]1NC(=O)[C@H](CCCN)NC(=O)[C@H](C(C)C)NC(=O)[C@@H]2CCCN2C(=O)[C@@H](Cc2ccccc2)NC(=O)[C@H](CC(C)C)NC(=O)[C@H](CCCN)NC(=O)[C@H](C(C)C)NC(=O)[C@@H]2CCCN2C(=O)[C@@H](Cc2ccccc2)NC1=O [GS, [PVOL^DFPVOL^DF]cyclo, reference compound] (cyclo(L[dF]PV[Orn]L[dF]PV[Orn])) | 8 µg/mL (≈ 7.01 µM) | 2 µg/mL (≈ 1.75 µM) | 2 µg/mL (≈ 1.75 µM) | 1 µg/mL (≈ 0.876 µM) | – | – | – | 12 µg/mL | –
